{"source": "ChEMBL document CHEMBL5055686", "about": "“Discovery of AL-GDa62 as a Potential Synthetic Lethal Lead for the Treatment of Gastric Cancer” (J Med Chem, 2021)", "key": {"[1]": {"assay": "Anticancer activity against mouse mammary organoids assessed as reduction in growth by measuring TdTom CdhI-/- at 12.5 uM incubated for 48 hrs", "type": "functional, Mammary gland", "set-up": "scale not given: the % may be the effect or the level left"}, "[2]": {"tested_on": "MCF-10A", "assay": "Induction apoptosis in human spontaneously immortalized wild type MCF10A cells assessed as necrotic cells at 3.25 uM measured after 48 hrs by flow cytometry-based annexin-V-FITC/propidium iodide (PI) apoptosis assay", "type": "functional"}, "[3]": {"tested_on": "MCF-10A", "assay": "Induction of apoptosis in human spontaneously immortalized wild type MCF10A cells assessed as apoptotic cells at 12.5 uM measured after 48 hrs by flow cytometry-based annexin-V-FITC/propidium iodide (PI) apoptosis assay", "type": "functional"}, "[4]": {"assay": "Ratio of EC50 for antitumor activity against human spontaneously immortalized wild type MCF10A cells assessed as cell numbers measured after 48 hrs to antitumor activity against human spontaneously immortalized CDH-/- MCF10A cells assessed as cell numbers measured after 48 hrs", "type": "functional, MCF-10A"}, "[5]": {"tested_on": "MCF-10A", "assay": "Induction apoptosis in human spontaneously immortalized wild type MCF10A cells assessed as early apoptotic cells at 6.25 uM measured after 48 hrs by flow cytometry-based annexin-V-FITC/propidium iodide (PI) apoptosis assay (reference value: 1.2%)", "type": "functional"}, "[6]": {"organism": "Homo sapiens", "assay": "Inhibition of SUMOylation of GST-tagged RanGAP1 (unknown origin) protein using SUMO1 and UBC9 up to 3.13 uM by Western blotting analysis"}, "[7]": {"assay": "Ratio of EC50 for antitumor activity against human NCI-N87 cells assessed as cell numbers measured after 48 hrs to antitumor activity against human CDH-/- NCI-N87 cells assessed as cell numbers measured after 48 hrs", "type": "functional"}, "[8]": {"tested_on": "MCF-10A", "assay": "Induction apoptosis in human spontaneously immortalized wild type MCF10A cells assessed as necrotic cells at 6.25 uM measured after 48 hrs by flow cytometry-based annexin-V-FITC/propidium iodide (PI) apoptosis assay", "type": "functional"}, "[9]": {"tested_on": "MCF-10A", "assay": "Antitumor activity against human spontaneously immortalized CDH-/- MCF10A cells assessed as cell numbers measured after 48 hrs", "type": "functional, cell-based", "conditions": "Homo sapiens, MCF-10A, 48 h; read-out: EC50"}, "[10]": {"tested_on": "MCF-10A", "assay": "Induction of apoptosis in human spontaneously immortalized CDH-/- MCF10A cells assessed as apoptotic cells at 12.5 uM measured after 48 hrs by flow cytometry-based annexin-V-FITC/propidium iodide (PI) apoptosis assay", "type": "functional"}, "[11]": {"tested_on": "MCF-10A", "assay": "Antitumor activity against human spontaneously immortalized wild type MCF-10A cells assessed as cell numbers measured after 48 hrs", "type": "functional, cell-based", "conditions": "Homo sapiens, MCF-10A, 48 h; read-out: EC50"}, "[12]": {"tested_on": "MCF-10A", "assay": "Induction apoptosis in human CDH-/- MCF10A cells assessed as late apoptotic cells at 6.25 uM measured after 48 hrs by flow cytometry-based annexin-V-FITC/propidium iodide (PI) apoptosis assay (reference value: 3.2%)", "type": "functional"}, "[13]": {"tested_on": "MCF-10A", "assay": "Induction apoptosis in human spontaneously immortalized wild type MCF10A cells assessed as late apoptotic cells at 6.25 uM measured after 48 hrs by flow cytometry-based annexin-V-FITC/propidium iodide (PI) apoptosis assay (reference value: 4.2%)", "type": "functional"}, "[14]": {"target": "Actin-related protein 2/3 complex subunit 5 (Homo sapiens) (UniProt O15511)", "assay": "Binding affinity to ARPC5 in human spontaneously immortalized CDH-/- MCF10A cell lysates assessed as change in melting temperature at 3.125 uM for 3 hrs by thermal proteome profiling assay", "conditions": "MCF-10A"}, "[15]": {"assay": "Anticancer activity against mouse gastric organoids assessed as reduction in growth by measuring TdTom CdhI-/- at 1.56 uM incubated for 48 hrs", "type": "functional, Gastric gland", "set-up": "scale not given: the % may be the effect or the level left"}, "[16]": {"tested_on": "NCI-N87", "assay": "Antitumor activity against human wild type NCI-N87 cells assessed as cell numbers measured after 48 hrs", "type": "functional, cell-based", "conditions": "NCI-N87, 48 h"}, "[17]": {"tested_on": "MCF-10A", "assay": "Induction apoptosis in human CDH-/- MCF10A cells assessed as viable cells at 6.25 uM measured after 48 hrs by flow cytometry-based annexin-V-FITC/propidium iodide (PI) apoptosis assay (reference value: 93.6%)", "type": "functional", "conditions": "read-out: Activity"}, "[18]": {"target": "SUMO-conjugating enzyme UBC9 (Homo sapiens) (UniProt P63279)", "sequence (P63279 whole entry)": "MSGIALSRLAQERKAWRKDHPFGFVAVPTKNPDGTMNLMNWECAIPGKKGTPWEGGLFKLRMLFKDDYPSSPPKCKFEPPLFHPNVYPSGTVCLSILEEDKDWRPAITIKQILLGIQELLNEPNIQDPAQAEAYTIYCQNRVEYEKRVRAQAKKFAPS", "assay": "Binding affinity to SUMO-conjugating UBC9 in human spontaneously immortalized CDH-/- MCF10A cell lysates assessed as change in melting temperature at 3.125 uM for 3 hrs by thermal proteome profiling assay", "conditions": "MCF-10A"}, "[19]": {"tested_on": "NCI-N87", "assay": "Antitumor activity against human CDH-/- NCI-N87cells assessed as cell numbers measured after 48 hrs", "type": "functional, cell-based", "conditions": "NCI-N87, 48 h"}, "[20]": {"tested_on": "MCF-10A", "assay": "Binding affinity to TCOF1 in human spontaneously immortalized CDH-/- MCF10A cell lysates assessed as change in melting temperature at 3.125 uM for 3 hrs by thermal proteome profiling assay"}, "[21]": {"tested_on": "MCF-10A", "assay": "Induction apoptosis in human CDH-/- MCF10A cells assessed as early apoptotic cells at 6.25 uM measured after 48 hrs by flow cytometry-based annexin-V-FITC/propidium iodide (PI) apoptosis assay (reference value: 2.9%)", "type": "functional"}, "[22]": {"tested_on": "MCF-10A", "assay": "Antitumor activity against human spontaneously immortalized CDH-/- MCF10A cells assessed as cell numbers at 3.13 uM measured after 48 hrs", "type": "functional"}, "[23]": {"tested_on": "MCF-10A", "assay": "Induction apoptosis in human spontaneously immortalized wild type MCF10A cells assessed as viable cells at 6.25 uM measured after 48 hrs by flow cytometry-based annexin-V-FITC/propidium iodide apoptosis assay (reference value: 94.4%)", "type": "functional", "conditions": "read-out: Activity"}}, "note": "The source made the active and inactive calls. No cut-off for these calls is given here."}
{"smiles": "Cc1cc(NCc2ccc(F)cc2)c2cc(OCCCN3CCCC3)ccc2n1", "values": [{"measurement": "Activity", "setting": "[1]", "result": 21.3, "unit": "%"}, {"measurement": "Activity", "setting": "[2]", "result": 5, "unit": "%"}, {"measurement": "Activity", "setting": "[3]", "result": ">90", "unit": "%"}, {"measurement": "Ratio EC50", "setting": "[4]", "result": 1.6}, {"measurement": "Activity", "setting": "[5]", "result": 23.5, "unit": "%"}, {"measurement": "inhibition", "setting": "[6]", "result": "Active"}, {"measurement": "Ratio EC50", "setting": "[7]", "result": 1.9}, {"measurement": "Activity", "setting": "[8]", "result": 32, "unit": "%"}, {"measurement": "EC50", "setting": "[9]", "result": 2, "unit": "µM"}, {"measurement": "Activity", "setting": "[10]", "result": ">90", "unit": "%"}, {"measurement": "EC50", "setting": "[11]", "result": 3.2, "unit": "µM"}, {"measurement": "Activity", "setting": "[12]", "result": 48, "unit": "%"}, {"measurement": "Activity", "setting": "[13]", "result": 11.2, "unit": "%"}, {"measurement": "ΔTm", "setting": "[14]", "result": 3.72, "unit": "°C"}, {"measurement": "Activity", "setting": "[15]", "result": 40, "unit": "%"}, {"measurement": "EC50", "setting": "[16]", "result": 8.5, "unit": "µM"}, {"measurement": "viability at 6.25 µM", "setting": "[17]", "result": 26.7, "unit": "%"}, {"measurement": "ΔTm", "setting": "[18]", "result": 5.71, "unit": "°C"}, {"measurement": "EC50", "setting": "[19]", "result": 16.4, "unit": "µM"}, {"measurement": "ΔTm", "setting": "[20]", "result": 8.32, "unit": "°C"}, {"measurement": "Activity", "setting": "[21]", "result": 24.7, "unit": "%"}, {"measurement": "inhibition at 3.13 µM", "setting": "[22]", "result": 70, "unit": "%"}, {"measurement": "viability at 6.25 µM", "setting": "[23]", "result": 64.9, "unit": "%"}]}
